From patent US8613905B2, “Diagnostic agent” (United Arab Emirates University, priority 2007, dated 2013)
“Also recorded” adds a separate entry of the source.

What was measured:
[1] = target: T1, fresh or aggregated α-synuclein (Homo sapiens, UniProt P37840); experiment: ELISA: binding of biotinylated peptides to coated α-synuclein; conditions: for binding to coated aggregated α-synuclein: aggregated α-synuclein coated at 500 pmol/well, data not shown; for binding to aggregated versus fresh α-synuclein: range of peptide concentrations, FIG. 3A, B; for binding to aggregated versus fresh α-synuclein / lowest binding concentration detected: α-synuclein coated at 100 pmol/well; for binding to coated fresh and aggregated α-synuclein: α-synuclein coated 20-200 pmol/well, peptides 200 pmol/well, FIG. 2
T1 construct: made in house; host or cells: Escherichia coli
Experimental: Various concentrations of fresh, or aggregated α-synuclein solutions (20-200 pmol/well) were coated on a microtiter plate to dry overnight at 37° C. Aggregated α-synuclein was therefore fixed to the microtiter plate. Aggregated α-synuclein was produced either by aging, dopamine treatment or nitration as indicated on the figures. After washing with PBS containing 0.05% Tween-20 (PBST) and blocking with blocking buffer (PBS containing 2.5% gelatin and 0.05% Tween-20), the biotinylated peptides (200 pmol/well in PBS) or BSA protein (negative control) were added and incubated for 1.5 hrs at room temperature (RT).
Binding of peptides to α-synuclein was quantified using enzyme-linked avidin. Briefly, the plates were washed three times with PBST before the addition of 100 μl/well of extravidin peroxidase diluted at 1:5,000 in blocking buffer. Plates were then washed three times with PBST before the addition of TMB peroxidase substrate. Plates were left for 15 minutes at RT for colour to develop. The reaction was stopped by addition 100 μl/well of 0.5M sulphuric acid and the plates were read at 450 nm in a spectrophotometer.
The effect of peptide concentration on binding to a fixed concentration of α-synuclein was tested by coating microtiter plates as above with 100 or 200 pmol/well of α-synuclein. […] The lowest binding concentration detected for both peptides was 10 pmol/well. […] The lowest binding concentration detected for all three peptides was 10 pmol/well. The binding properties of peptides 6 & 7 to coated fresh or aged α-synuclein were also tested. The binding for peptides 6&7 was detectable when aggregated α-synuclein was coated at 500 pmol/well (data not shown).
The lowest binding concentration detected for dopamine treated α-synuclein was 1 pmol/well. Dopamine treated and nitrated α-synuclein are physiological approximations of the soluble aggregates (or adducts) present during the early stages of synucleinopathic diseases.

[2] = target: T2, α-synuclein aggregates in TET-off regulated SH-SY5Y cells expressing A53T (Homo sapiens, UniProt P37840, A53T); experiment: Binding to α-synuclein aggregates in cell model; assay type: cell-based; conditions: 5 μM for 1, 2 & 4 hrs respectively (OR5, 6, 7); FIG. 13
T2 construct: expressed in transfected cells; host or cells: inducible TET-off regulated SH-SY5Y cells (from Dr. Kostas Vekrellis)
Experimental: This example utilises the inducible TET-off regulated SH-SY5Y system from Dr. Kostas Vekrellis (Foundation For Biomedical Research Academy of Athens). These transfected cells have shown to produce both soluble and insoluble aggregates of α-synuclein. The binding of the OR compounds to α-synuclein aggregates was investigated in this cell model.
Cells expressing A53T were grown on coverslips in media without doxycycline and were differentiated for 7 days by adding retinoic acid at 10 μM. On day 6, cells were treated with 1 μM MG132 in media containing retinoic acid for 24 hrs. The biotinylated-OR5, 6 and 7 were added to the media at 5 μM for 1, 2 & 4 hrs respectively at 37° C.
The media for the cells was then changed with fresh media without peptides and then incubated for another 15 mins for the cells to clear up the unbound peptides to α-synuclein aggregates. The cells were fixed and then treated with 0.2% Triton X in PBS for 15 minutes at RT, and after washing with PBS the blocking buffer, 0.5% BSA, was added.
The cells were stained with anti-α-synuclein antibodies (MAb 211 or FL-140 (Santa Cruz Biotechnology)), and with Streptavidin-FITC (Sigma). α-synuclein aggregates were detected after staining with anti-mouse TRITC (Sigma) or anti-rabbit TRITC (Jackson ImmunoResearch Inc.) as appropriate.

[3] = system: SH-SY5Y neuroblastoma cells; experiment: Uptake of peptides into living neuronal cells (confocal microscopy); assay type: cell-based, human; conditions: peptides at 50 μM
Experimental: SH-SY5Y or M17 neuroblastoma cells were grown in 15 ml medium in confluent flasks before splitting each suspension into petri dishes and allowing cells to grow on coverslips (˜5×10^3/plate) until the next day. Cells were then incubated with different peptides at 50 μM in growing media (total volume=2 ml). […] After 15 min incubation with respective peptides, the cells were washed 3 times with PBS. 2 ml of fixing solution (4% paraformaldehyde in PBS) was added to the cells which were then incubated for 30 min at room temperature. Fixing buffer was removed and 2 ml of permeabilization buffer (0.2% Triton-X-100 in PBS) was added to the cells for 30 min at room temperature and then removed. 2 ml of Blocking buffer was added, left for 1 hour at RT and then removed before addition of 1:100 FITC [Avidin labelled Fluorescein] (Vector Labs) in blocking buffer. Cells were incubated for 1 hour and then washed twice with PBS 0.05% tween. The coverslips were removed and plated with the cell bearing surface downwards on a glass slide, with the addition of a drop of mounting medium (Dako Cytomation). Cells were then visualized under the confocal microscope.

aggregated α-synuclein = target: T3, aggregated α-synuclein (Homo sapiens, UniProt P37840); experiment: Immunogold assay (EM) on preformed α-synuclein aggregates; assay type: binding; conditions: 50 μM aggregated α-synuclein on grids; FIG. 6
T3 construct: made in house; host or cells: Escherichia coli
Experimental: Copper grids were placed on 50 μl of 50 μM aggregated α-synuclein for 1 hour and then washed on 50 μl of PBS for 2 minutes before being placed on 50 μl blocking buffer (Vector) for 1 hour 30 minutes. Grids were washed 5 times with PBS (5 minutes each) and then soaked in either […] peptide 5 (in blocking buffer) or blocking buffer only (negative control) for 1 hour 30 minutes at room temperature. Grids were then washed 5 times with PBS (5 minutes each) and soaked in 50 μl of streptavidin-gold label (1:50) in blocking buffer for 30 minutes at room temperature. Grids were again washed 5 times with PBS (5 minutes each) and soaked in 50 μl of uranyl acetate (2% in distilled water) for 1 minute at room temperature before viewing under a transmission electron microscope.

[4] = target: T1, fresh or aggregated α-synuclein; experiment: ELISA: coated peptides capturing free α-synuclein; assay type: binding; conditions: peptides coated 100 pmol/well; α-synuclein 0.001-200 pmol/well; FIG. 4
Experimental: Peptides (100 pmol/well) were coated on a microtiter plate to dry overnight at 37° C. The peptides were therefore fixed to the microtiter plate. After washing with PBS containing 0.05% Tween 20 (PBST) and blocking with blocking buffer (PBS containing 2.5% gelatin and 0.05% Tween 20), various concentrations (0.001-200 pmol/well) of fresh or aggregated α-synuclein solution (produced by aging), or BSA protein (negative control) were added and incubated for 1.5 hrs at RT.
Binding of α-synuclein to peptides was quantified using enzyme-linked antibody specific for α-synuclein. Briefly, the plates were washed three times with PBST before addition of the polyclonal rabbit α-synuclein antibody FL-140 at 1:1000 (in PBS). Plates were then washed three times with PBST before the addition of TMB peroxidase substrate. Plates were left for 15 min at RT for colour to develop. The reaction was stopped by addition 100 μl/well of 0.5M sulphuric acid and the plates were read at 450 nm in a spectrophotometer.

[5] = target: T4, oligomeric α-synuclein (dopamine treated α-synuclein) (Homo sapiens, UniProt P37840); experiment: Dot blotting of biotinylated peptides on α-synuclein; assay type: binding; conditions: FIG. 11
T4 construct: made in house; host or cells: Escherichia coli
Experimental: The binding of the peptides to the oligomeric α-synuclein was also tested using dot blotting. Monomeric α-synuclein (fresh α-synuclein solution) and oligomeric α-synuclein (dopamine treated α-synuclein) was spotted onto a nitrocellulose membrane. After the samples had been dried at room temperature for 2 hrs, the membranes were blocked, and then anti-α-synuclein MAb 211 or biotinylated-peptides were added to the membranes and incubated for 1.5 hr at room temperature. After gentle washing the membranes were treated with Extravidin-peroxidase or anti-mouse-peroxidase as appropriate. The binding of 211 and the peptides was detected using ECL reagents (Pierce). As shown in FIG. 11 the biotinylated-peptides bind specifically to the oligomeric but not monomeric forms of α-synuclein.

Gd-DOTA-r-Sar-vva-Sar-K(biotin)-butadiamine [OR6]
binding to coated aggregated α-synuclein [1]: detectable | binding to α-synuclein aggregates formed inside cells [2]: bind to α-synuclein aggregates formed inside cells | incubation after which observed in living cells [3]: 2 h

Gd-DOTA-r-Sar-vva-Sar-K(biotin)-pentadiamine [OR7]
binding to coated aggregated α-synuclein [1]: detectable | binding to α-synuclein aggregates formed inside cells [2]: bind to α-synuclein aggregates formed inside cells | binding to preformed α-synuclein aggregates (streptavidin-gold, EM) (aggregated α-synuclein): bind to preformed α-synuclein aggregates; also recorded: binding | incubation after which observed in living cells [3]: 4 h

Gd-DOTA-r-Sar-vva-Sar-K(biotin)-rrrrrr [OR5]
binding to aggregated α-synuclein generated by aging, dopamine treatment or nitration ([1]; FIG. 5): highly specific binding to all forms of aggregated α-synuclein | specificity for dopamine treated α-synuclein ([1]; FIG. 5): particularly high specificity | lowest binding concentration detected for dopamine treated α-synuclein ([1]; dopamine treated α-synuclein (soluble aggregates)): 1 pmol/well | binding to α-synuclein aggregates formed inside cells [2]: bind to α-synuclein aggregates formed inside cells | capture of aggregated versus fresh α-synuclein by coated peptide [4]: captured more of the aggregated than the fresh α-synuclein | binding to oligomeric versus monomeric α-synuclein (dot blot) [5]: binding of biotinylated-peptide OR5 to α-synuclein oligomers | binding to preformed α-synuclein aggregates (streptavidin-gold, EM) (aggregated α-synuclein): bind to preformed α-synuclein aggregates; also recorded: binding

Gd-DOTA-rGtvvaGK(biotin)-rrrrrr [OR1]
binding to aggregated versus fresh α-synuclein [1]: more binding to the aggregated than to the fresh α-synuclein | binding to coated fresh and aggregated α-synuclein [1]: high binding to both fresh and aggregated coated α-synuclein | lowest binding concentration detected [1]: 10 pmol/well

Gd-DOTA-rGvvaGK(biotin)-rrrrrr [OR2]
binding to aggregated versus fresh α-synuclein [1]: more binding to the aggregated than to the fresh α-synuclein | binding to coated fresh and aggregated α-synuclein [1]: high binding to both fresh and aggregated coated α-synuclein | lowest binding concentration detected [1]: 10 pmol/well

Gd-DOTA-rrrrrrGtvvaGK(biotin)-r [OR3]
binding to coated fresh and aggregated α-synuclein [1]: more specific binding to the aggregated α-synuclein

Gd-DOTA-rrrrrrGvvaGK(biotin)-r [OR4]
binding to coated fresh and aggregated α-synuclein [1]: more specific binding to the aggregated α-synuclein | capture of aggregated versus fresh α-synuclein by coated peptide [4]: captured more of the aggregated than the fresh α-synuclein
